Reference: patent publication US5221732A, “Antimicrobial magainin modified peptides” (priority 1988, dated 1993)
Where no end group is shown, it is not given here.

What was measured:
[1] = test system: Gram-positive and Gram-negative bacteria; assay: Antimicrobial assay, overall statements; type: cell-based
Description: (§1) The antimicrobial activities of magainin analogues were assayed by macrodilution broth procedure of Jones et al (Jones, R. N., Barry, A. L., Gaven, T. L. and Washington, J. A. in "Manual of Clinical Microbiology", Lennette, D. H. Balows, A., Hausler, W. J. and Shadomy, H. J., eds; fourth edition, American Society for Microbiology, Washington, D.C., 1985) with modifications. Different concentrations of peptides were added to 2 ml of trypticase soy broth (BBL) containing the inocula of the test organisms adjusted to 10^5 and 10^6 CFU/ml. Microbial growth was determined by the increase in OD600, after incubation of the tubes at 35° C. for 6-9 h depending on the growth rate. […] The 50% minimal inhibitory concentration was determined from the plots of growth vs concentration of peptide.

[2] = Circular dichroic measurements; type: physicochemical
[3] = test system: Streptococcus faecalis (ATCC 29212); assay: Antimicrobial assay, macrodilution broth; type: cell-based; details: Streptococcus faecalis (29212); for 50% Minimal inhibitory concentration: 50% inhibition of growth; for 100% Minimal inhibitory concentration: complete inhibition of growth
Description: as §1

[4] = test system: Staphylococcus aureus (ATCC 29213) beta-lactamase(+); assay: Antimicrobial assay, macrodilution broth; type: cell-based; details: Staphylococcus aureus (29213) beta-lactamase(+); for 50% Minimal inhibitory concentration: 50% inhibition of growth; for 100% Minimal inhibitory concentration: complete inhibition of growth
Description: as §1

[5] = test system: Escherichia coli (ATCC 25922); assay: Antimicrobial assay, macrodilution broth; type: cell-based; details: Escherichia coli (25922); for 50% Minimal inhibitory concentration: 50% inhibition of growth; for 100% Minimal inhibitory concentration: complete inhibition of growth
Description: as §1

[6] = test system: Streptococcus agalactiae (ATCC 12386); assay: Antimicrobial assay, macrodilution broth; type: cell-based; details: Streptococcus agalactiae (12386); for 50% Minimal inhibitory concentration: 50% inhibition of growth; for 100% Minimal inhibitory concentration: complete inhibition of growth
Description: as §1

[7] = test system: Pseudomonas aeruginosa (ATCC 27853); assay: Antimicrobial assay, macrodilution broth; type: cell-based; details: Pseudomonas aeruginosa (27853); for 50% Minimal inhibitory concentration: 50% inhibition of growth; for 100% Minimal inhibitory concentration: complete inhibition of growth
Description: as §1

[8] = test system: Staphylococcus aureus (ATCC 25923) beta-lactamase(-); assay: Antimicrobial assay, macrodilution broth; type: cell-based; details: Staphylococcus aureus (25923) beta-lactamase(-); for 50% Minimal inhibitory concentration: 50% inhibition of growth; for 100% Minimal inhibitory concentration: complete inhibition of growth
Description: as §1

[9] = test system: Klebsiella pneumoniae (ATCC 13883); assay: Antimicrobial assay, macrodilution broth; type: cell-based; details: Klebsiella pneumoniae (13883); for 50% Minimal inhibitory concentration: 50% inhibition of growth; for 100% Minimal inhibitory concentration: complete inhibition of growth
Description: as §1

human erythrocyte = assay: Erythrocyte hemolysis assay; type: cell-based
Description: To 75×12 mm borosilicate test tubes containing a predetermined amount of dried peptide in duplicate, 2.5 ml of diluted human erythrocyte suspension (10%, v/v) in isotonic phosphate-buffered saline was added. After gentle mixing and incubation for 10 min at 37° C., tubes were centrifuged at 3000×g for 10 min. The supernatant was separated from cells and debris, diluted if necessary, and OD350 measured. 100% hemolysis was obtained by using 0.1% Triton X-100.

[10] = 40% CF3CH2OH (trifluoroethanol)

Substance	growth inhibition of both Gram-positive and Gram-negative bacteria (in words) [1]	% structure calculated from CD spectra, alpha-helix ([2]; 50 mM K-phosphate, pH7) [%]	% structure calculated from CD spectra, beta-sheet ([2]; 50 mM K-phosphate, pH7) [%]	% structure calculated from CD spectra, alpha-helix [2, 10] [%]	% structure calculated from CD spectra, beta-sheet [2, 10] [%]	50% Minimal inhibitory concentration [3] [µg/mL]	100% Minimal inhibitory concentration [3] [µg/mL]	50% Minimal inhibitory concentration [4] [µg/mL]	100% Minimal inhibitory concentration [4] [µg/mL]	50% Minimal inhibitory concentration [5] [µg/mL]	100% Minimal inhibitory concentration [5] [µg/mL]	50% Minimal inhibitory concentration [6] [µg/mL]	100% Minimal inhibitory concentration [6] [µg/mL]	50% Minimal inhibitory concentration [7] [µg/mL]	100% Minimal inhibitory concentration [7] [µg/mL]	50% Minimal inhibitory concentration [8] [µg/mL]	100% Minimal inhibitory concentration [8] [µg/mL]	50% Minimal inhibitory concentration [9] [µg/mL]	100% Minimal inhibitory concentration [9] [µg/mL]	further results
GIGKFLHSAKKFAKAFVAEIMNS-NH2 [analogue F]	active	1	46	63	6	10	25	5	10	1.2	5	0.25	1	25	50	10	25	5	25	antimicrobial activity ([1]; effect of omission of replacement at Ser8): only slightly; hemolytic activity (in words, comparative) (human erythrocyte): lower hemolytic activity
GIGKFLHAAKKFAKAFVAEIMNS-NH2 [analogue B]	active	2	44	61	9	5	10	5	10	1.2	2.5	0.25	1	15	25	5	10	5	10	
GIGKFLHSAGKFGKAFVGEIMKS [Magainin 1, reference compound]		0	44	24	37	360	> 500	500	> 500	100	250	60	75	430	> 500	360	> 500	100	250	
Ac-GIGKFLHAAKKFAKAFVAEIMNS-NH2 [analogue C]	active	0	48	61	14	5	25	7.5	25	10	25	0.5	1	> 100	> 100	10	25	60	100	growth inhibitory activity toward Gram-negative bacteria ([1]; effect of acetylation of the alpha-amino terminus, versus analogue B): significantly reduced
